PubChem BioAssay AID248 (DTP/NCI, 2004)
Several values for one entry are separate records, joined by “and”; a condition that tells them apart may be missing. Equal entries are not always repeated. Toxic doses and inconclusive results are not listed.

Test system: L1210 leukemia ip in BDF1 mice, survival T/C
Assay: NCI In Vivo Anticancer Drug Screen. Data for tumor model L1210 Leukemia (intraperitoneal) in B6D2F1 (BDF1) mice
Settings: endpoint: mean survival time, higher = longer survival
Method in brief: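 Mice bearing the transplanted tumor received compound or vehicle. Survival of the treated group was divided by that of the vehicle-treated control group to give the ratio.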

[1] = dose: 50.0 mg/kg/injection, schedule: Q01DX009 (ip), vehicle: saline
[2] = dose: 200.0 mg/kg/injection, schedule: Q01DX009 (ip), vehicle: saline
[3] = dose: 25.0 mg/kg/injection, schedule: Q01DX009 (ip), vehicle: saline with Tween-80
[4] = dose: 50.0 mg/kg/injection, schedule: Q01DX009 (ip), vehicle: saline with Tween-80
[5] = dose: 100.0 mg/kg/injection, schedule: Q01DX009 (ip), vehicle: saline with Tween-80
[6] = dose: 100.0 mg/kg/injection, schedule: Q04DX003 (ip), vehicle: saline with Tween-80
[7] = dose: 5.0 mg/kg/injection, schedule: Q01DX001 (ip), vehicle: saline
[8] = dose: 10.0 mg/kg/injection, schedule: Q01DX001 (ip), vehicle: saline
[9] = dose: 20.0 mg/kg/injection, schedule: Q01DX001 (ip), vehicle: saline
[10] = dose: 40.0 mg/kg/injection, schedule: Q01DX001 (ip), vehicle: saline
[11] = dose: 200.0 mg/kg/injection, schedule: Q04DX003 (ip), vehicle: saline with Tween-80
[12] = dose: 100.0 mg/kg/injection, schedule: Q01DX001 (ip), vehicle: saline
[13] = dose: 200.0 mg/kg/injection, schedule: Q01DX001 (ip), vehicle: saline
[14] = dose: 400.0 mg/kg/injection, schedule: Q01DX001 (ip), vehicle: saline
[15] = dose: 100.0 mg/kg/injection, schedule: Q04DX002 (ip), vehicle: Klucel (hydroxypropylcellulose) (HPC)
[16] = dose: 200.0 mg/kg/injection, schedule: Q04DX002 (ip), vehicle: Klucel (hydroxypropylcellulose) (HPC)
[17] = dose: 400.0 mg/kg/injection, schedule: Q04DX002 (ip), vehicle: Klucel (hydroxypropylcellulose) (HPC)

SMILES: CCN=C1C=C/C(=C(/c2ccc(NCC)c(C)c2)c2cc(O)c(S(=O)(=O)O)cc2S(=O)(=O)O)C=C1C
- T/C [1]: 97 % of control
- T/C (dose: 100.0 mg/kg/injection, schedule: Q01DX009 (ip), vehicle: saline): 97 % of control
- T/C [2]: 104 % of control

SMILES: CC(C)(C)c1cc(CN2CCCCC2)cc(C(C)(C)C)c1O
- T/C (dose: 12.5 mg/kg/injection, schedule: Q04DX003 (ip), vehicle: Klucel (hydroxypropylcellulose) (HPC)): 101 % of control
- T/C (dose: 25.0 mg/kg/injection, schedule: Q04DX003 (ip), vehicle: Klucel (hydroxypropylcellulose) (HPC)): 114 % of control
- T/C (dose: 50.0 mg/kg/injection, schedule: Q04DX003 (ip), vehicle: Klucel (hydroxypropylcellulose) (HPC)): 97 % of control

SMILES: CCCN1C(=O)C=CC1=O
- T/C [3]: 96 % of control
- T/C (dose: 25.0 mg/kg/injection, schedule: Q04DX003 (ip), vehicle: saline with Tween-80): 91 % of control
- T/C [4]: 96 % of control
- T/C (dose: 50.0 mg/kg/injection, schedule: Q04DX003 (ip), vehicle: saline with Tween-80): 92 % of control
- T/C [5]: 95 % of control
- T/C [6]: 97 % of control

SMILES: CN(C)c1ncnc2c1ncn2C1CCC(CO)C1 (configuration not stated)
- T/C (dose: 100.0 mg/kg/injection, schedule: Q01DX001 (ip), vehicle: carboxymethylcellulose (CMC)): 105 % of control
- T/C (dose: 200.0 mg/kg/injection, schedule: Q01DX001 (ip), vehicle: carboxymethylcellulose (CMC)): 96 % of control

SMILES: Cc1cc(Cc2ccccc2)n[nH]1
- T/C (dose: 100.0 mg/kg/injection, schedule: Q01DX001 (ip), vehicle: Klucel (hydroxypropylcellulose) (HPC)): 107 % of control
- T/C (dose: 200.0 mg/kg/injection, schedule: Q01DX001 (ip), vehicle: Klucel (hydroxypropylcellulose) (HPC)): 102 % of control
- T/C (dose: 400.0 mg/kg/injection, schedule: Q01DX001 (ip), vehicle: Klucel (hydroxypropylcellulose) (HPC)): 108 % of control

SMILES: OCC1OC(n2ccc3cncnc32)C(O)C1O (configuration not stated)
- T/C [7]: 106 % of control
- T/C [8]: 109 % of control
- T/C [9]: 106 % of control
- T/C [10]: 106 % of control

SMILES: Cc1cc(N(CCOS(C)(=O)=O)CCOS(C)(=O)=O)ccc1C=Nc1ccc(C(=O)O)c(O)c1
- T/C (dose: 4.0 mg/kg/injection, schedule: Q01DX009 (ip), vehicle: saline with Tween-80): 111 % of control
- T/C (dose: 6.0 mg/kg/injection, schedule: Q01DX009 (ip), vehicle: saline with Tween-80): 119 % of control

SMILES: CC(C)(Oc1ccc(Cl)cc1)C(=O)NCCCCCC(=O)O
- T/C [4]: 98 % of control
- T/C [5]: 98 % of control
- T/C (dose: 200.0 mg/kg/injection, schedule: Q01DX009 (ip), vehicle: saline with Tween-80): 95 % of control

SMILES: CC(C)CCOc1ccc(N)c([N+](=O)[O-])c1
- T/C (dose: 6.25 mg/kg/injection, schedule: Q01DX009 (ip), vehicle: saline with Tween-80): 105 % of control
- T/C (dose: 12.5 mg/kg/injection, schedule: Q01DX009 (ip), vehicle: saline with Tween-80): 100 % of control
- T/C [3]: 103 % of control
- T/C [4]: 94 % of control
- T/C [6]: 97 % of control
- T/C [11]: 100 % of control

SMILES: NC(=O)c1ccncc1
- T/C [12]: 105 % of control
- T/C [13]: 104 % of control
- T/C [14]: 98 % of control

SMILES: C=COC(=O)CCCCCCC (tested in a mixture with another compound)
- T/C (dose: 4.0 mg/kg/injection, schedule: Q01DX001 (ip), vehicle: acetone): 89 % of control
- T/C (dose: 5.0 mg/kg/injection, schedule: Q01DX001 (ip), vehicle: acetone): 94 % of control
- T/C [7]: 97 % of control
- T/C (dose: 6.0 mg/kg/injection, schedule: Q01DX001 (ip), vehicle: acetone): 106 % of control
- T/C (dose: 10.0 mg/kg/injection, schedule: Q01DX001 (ip), vehicle: acetone): 93 % of control
- T/C [8]: 87 % of control
- T/C (dose: 20.0 mg/kg/injection, schedule: Q01DX001 (ip), vehicle: acetone): 92 % of control
- T/C [9]: 101 % of control
- T/C (dose: 40.0 mg/kg/injection, schedule: Q01DX001 (ip), vehicle: acetone): 95 % of control
- T/C [10]: 97 % of control
- T/C (dose: 80.0 mg/kg/injection, schedule: Q01DX001 (ip), vehicle: acetone): 90 % of control
- T/C (dose: 80.0 mg/kg/injection, schedule: Q01DX001 (ip), vehicle: saline): 102 % of control
- T/C [12]: 110 % of control and 104 % of control and 105 % of control
- T/C [13]: 94 % of control
- T/C [14]: 100 % of control and 101 % of control

SMILES: C(=C\SCc1ccccc1)/SCc1ccccc1
- T/C [15]: 103 % of control
- T/C [6]: 97 % of control
- T/C [16]: 103 % of control
- T/C [11]: 101 % of control
- T/C [17]: 96 % of control
- T/C (dose: 400.0 mg/kg/injection, schedule: Q04DX003 (ip), vehicle: saline with Tween-80): 102 % of control

SMILES: S=C(N/N=C/c1ccc2c(c1)CCC2)Nc1ccccc1
- T/C (dose: 100.0 mg/kg/injection, schedule: Q04DX003 (ip), vehicle: Klucel (hydroxypropylcellulose) (HPC)): 103 % of control
- T/C (dose: 200.0 mg/kg/injection, schedule: Q04DX003 (ip), vehicle: Klucel (hydroxypropylcellulose) (HPC)): 92 % of control
- T/C (dose: 400.0 mg/kg/injection, schedule: Q04DX003 (ip), vehicle: Klucel (hydroxypropylcellulose) (HPC)): 100 % of control

SMILES: CCCCCCCCC(S(=O)(=O)CC)S(=O)(=O)CC
- T/C [12]: 97 % of control
- T/C [13]: 94 % of control
- T/C [14]: 92 % of control

SMILES: CC(=O)Nc1ccccc1O
- T/C (dose: 50.0 mg/kg/injection, schedule: Q04DX002 (ip), vehicle: Klucel (hydroxypropylcellulose) (HPC)): 94 % of control
- T/C (dose: 75.0 mg/kg/injection, schedule: Q01DX009 (ip), vehicle: saline): 95 % of control
- T/C [15]: 94 % of control and 102 % of control
- T/C (dose: 150.0 mg/kg/injection, schedule: Q01DX009 (ip), vehicle: saline): 113 % of control
- T/C [16]: 102 % of control
- T/C (dose: 300.0 mg/kg/injection, schedule: Q01DX009 (ip), vehicle: saline): 89 % of control
- T/C [17]: 113 % of control

SMILES: CCOC(=O)/C=C/C(=O)O.[Zn+2]
- T/C (dose: 12.5 mg/kg/injection, schedule: Q04DX003 (ip), vehicle: saline): 96 % of control and 91 % of control
- T/C (dose: 50.0 mg/kg/injection, schedule: Q04DX003 (ip), vehicle: saline): 96 % of control

SMILES: CCOC(=O)C(CC1CC(=O)Nc2ccccc21)C(=O)OCC (configuration not stated)
- T/C [12]: 95 % of control
- T/C [13]: 97 % of control
- T/C [14]: 101 % of control

SMILES: CCc1c2cc(OC)c(OC)cc2cc2c3cc(OC)c(OC)cc3cc[n+]12 (tested in a mixture with another compound)
- T/C (dose: 25.0 mg/kg/injection, schedule: Q01DX009 (ip), vehicle: saline): 116 % of control
- T/C [1]: 123 % of control
- T/C (dose: 66.0 mg/kg/injection, schedule: Q01DX009 (ip), vehicle: saline with Tween-80): 150 % of control
- T/C (dose: 88.0 mg/kg/injection, schedule: Q04DX003 (ip), vehicle: saline): 121 % of control
- T/C [5]: 160 % of control
- T/C (dose: 150.0 mg/kg/injection, schedule: Q01DX009 (ip), vehicle: saline with Tween-80): 156 % of control
- T/C [2]: 89 % of control
- T/C (dose: 300.0 mg/kg/injection, schedule: Q04DX003 (ip), vehicle: saline): 107 % of control
